Laboratory results published in patent publication US7927785B2, “Methods for in vitro expansion of hematopoietic stem cells” (The Board of Trustees of the University of Illinois, priority 2002, dated 2011).

Experiments:
Format in all cases: cell-based
[1] = tested on: adult human bone marrow CD34+ cells; experiment: Phenotypic analysis (FACS) of marrow CD34+ cells after ex vivo culture; details: 9 days of culture; single agent; % of total cells
Protocol: (§1) To promote cell division of isolated CD34^+ cells, a stroma-free suspension culture was established as previously described (Bazil et al., 1995). Tissue culture dishes (35 mm; Costar, Corning, N.Y.) were seeded with 1×10^5 CD34^+cells/well in 2.5 mL Iscove modified Dulbecco medium (IMDM) (Biowhittaker, Walkersville, Md.) containing 30% FBS and a cocktail of cytokines specifically thought to promote exit from G0/G1 in primitive HSC populations which consisted of 100 ng/mL recombinant stem cell factor (SCF), 100 ng/mL FLT-3 ligand, 100 ng/mL thrombopoetin (TPO) and 50 ng/mL of interleukin (IL)-3, (all from Amgen Inc., Thousand Oaks, Calif.).
(§2) Cells were maintained in the media and incubated at 37° C. in a 100%-humidified atmosphere containing 5% CO2 for 48 hours. After intial 16 hours of incubation cells were exposed to the demethylating agent, 5-aza2′deoxycitidine (5azaD) (Sigma Chemicals, St. Louis, Mo.) at a concentration of 10^−6M. After 48 hours, cells were washed by centrifugation and then equally distributed to new tissue culture dishes in 2.5 mL IMDM supplemented with 30% FBS containing cytokines known to promote terminal differentiation of HSC into multiple hematopoietic lineages. The cocktail of cytokines contained 100 ng/mL of SCF, 50 ng/ml of granulocyte colony-stimulating factor (G-CSF), 50 ng/mL of IL-3, 50 ng/ml of IL-6 and 5 units (U)/mL of recombinant erythropoietin (EPO) (Amgen Inc., Thousand Oaks, Calif.). Cells at this time point were exposed to Trichostatin (TSA) (Sigma Chemical., St. Louis, Mo.) at 5 ng/mL and the culture was continued for an additional 7 days. At the end of the culture period cells were counted for viability by the trypan blue exclusion method using an inverted microscope. 5-fluorouracil (5-FU) (Sigma Chemical., St. Louis, Mo.) was used at a concentration of 200 μg/ml and added at the 16 hour time point instead of 5azaD and the cultures carried on as described above with no addition of TSA.
(§3) The phenotypic characteristics of the CD34^+ cells were analyzed using FACS. After 9 days of culture, expanded marrow CD34^+ cells were analyzed for primitive HSC phenotype, previously defined, by using flow activated-cell sorter (FACS) (Becton Dickinson (BD) FACS Calibur, San Jose, Calif.). Cells were stained with anti-human CD34^+ moAb conjugated either to fluorescein isothiocyanate (FITC) or phycoerythrin (PE) and another moAb including anti-CD38, anti-CD117, anti-CD90. To determine the lineage positive cells a panel of moab all conjugated to FITC (anti-CD2, anti-CD14, anti-CD15, anti-CD19 and anti-GlyA) (all antibodies were purchased from BD) were utilized. All anaylsis were paired with the corresponding matched isotype control of the specific moAb utilized. All staining and washes were performed in DPBS (Biowhittaker, Walkersville Md.) and 0.5% BSA (Sigma, Chemicals Co., St. Louis, Mo.). Immediately prior to FACS anaylsis, […] propidium iodide (PI) (Sigma, Chemicals Co., St. Louis, Mo.) was added for the exclusion of nonviable cells for phenotypic analysis. Using Cell-Quest software (BD), at least 10,000 live cells were acquired for each analysis.

[2] = tested on: adult human bone marrow CD34+ cells; experiment: Ex vivo expansion culture: cell counts and CD34+CD90+ cell numbers; details: for Fold changes from the original cells: CD34+CD90+ cells; for Total counts ×10^5: start 1×10^5 CD34+ cells/well; for expansion of CD34+CD90+ cells / Absolute CD34+ Number (×10^4) / Absolute CD34+CD90+ Numbers (×10^4) / Total Mononuclear Cell Number (×10^4): 9 days with cytokines; for Absolute CD34+ Number (×10^4) / Absolute CD34+CD90+ Numbers (×10^4) / Total Mononuclear Cell Number (×10^4) / Fold Expansion of CD34+CD90+: mean of 3 ± SEM; for Fold Expansion of CD34+CD90+: compared to the primary cell numbers
Protocol: as §1, §2, §3

[3] = tested on: adult human bone marrow CD34+ cells; experiment: Cell cycle analysis by FACS (SG2M %); details: for SG2M % 48 hours: 48 hours from the start of the experiment; for SG2M % 72 hours: 72 hours from the start of the experiment
Protocol: Table 4. TSA Increases the Number of Cycling Cells. Cell cycle analysis at 48 h and 72 h from the start of the experiment is shown. Cells were examined by FACS analysis for cell cycle. SG2M % indicates cells in active DNA synthesis and indicates cells that may be actively cycling. This increased cycling allows the incorporation of the hypomethylating agent 5azaD.

[4] = 9 days of culture, single agent

CC(/C=C/C(=O)NO)=C\[C@@H](C)C(=O)c1ccc(N(C)C)cc1 [TSA, Trichostatin A]
CD34+ CD90+ % [1]: 0.8% | CD34+ CKit lo % [1]: 3% | CD34+ Lin− % [1]: 4% | CD34+CD38− % [1]: 1.8% | CD34+CD133+ % [1]: 0.45% | Total CD34+ % [1]: 4% | % CD34+ of all cells [2, 4]: 3.9% | Absolute CD34+ thy-1+ cells ×10^5 [2, 4]: 0.31 ×10^5 | Absolute CD34 counts ×10^5 [2, 4]: 1.7 ×10^5 | Fold changes from the original cells [2, 4]: 1.4 fold | Total counts ×10^5 [2, 4]: 46 ×10^5 | expansion of CD34+CD90+ cells [2]: more limited expansion | Absolute CD34+ Number (×10^4) [2]: 19.0 ± 1.0 ×10^4 | Absolute CD34+CD90+ Numbers (×10^4) [2]: 4.0 ± 1.0 ×10^4 | Total Mononuclear Cell Number (×10^4) [2]: 470.0 ± 87.0 ×10^4 | Fold Expansion of CD34+CD90+ [2]: 1.8 ± 0.4 fold | SG2M % 48 hours [3]: 36% | SG2M % 72 hours [3]: 41.6%

Nc1ncn([C@H]2C[C@H](O)[C@@H](CO)O2)c(=O)n1 [5azaD, 5-aza2′deoxycitidine]
CD34+ CD90+ % [1]: 7% | CD34+ CKit lo % [1]: 19% | CD34+ Lin− % [1]: 30% | CD34+CD38− % [1]: 20% | CD34+CD133+ % [1]: 12% | Total CD34+ % [1]: 30% | % CD34+ of all cells [2, 4]: 26% | % CD34+ thy-1+ cells [2, 4]: 6% | Absolute CD34+ thy-1+ cells ×10^5 [2, 4]: 0.15 ×10^5 | Absolute CD34 counts ×10^5 [2, 4]: 0.65 ×10^5 | Fold changes from the original cells [2, 4]: 0.7 fold | Total counts ×10^5 [2, 4]: 2.5 ×10^5 | expansion of CD34+CD90+ cells [2]: more limited expansion | Absolute CD34+ Number (×10^4) [2]: 10.0 ± 4.0 ×10^4 | Absolute CD34+CD90+ Numbers (×10^4) [2]: 4.0 ± 1.7 ×10^4 | Total Mononuclear Cell Number (×10^4) [2]: 32.0 ± 5.0 ×10^4 | Fold Expansion of CD34+CD90+ [2]: 1.7 ± 0.8 fold | SG2M % 48 hours [3]: 36.5% | SG2M % 72 hours [3]: 35.5%
